Tests used:
[1] = test system: lipid vesicles 60% POPC:15% cholesterol:15% POPE:10% POPS; assay: Fluorescence anisotropy titration of NBD-labeled MARCKS peptides with lipid vesicles; type: binding; details: FIG. 4D
Method: In another example, because fluorescence enhancement assays could not distinguish the contributions between different degrees of membrane penetration and binding affinity, fluorescence anisotropy assay was performed to specifically measure the binding affinity of the MARCKS derived peptides. The NBD-labeled peptides (1 μM) were titrated by synthetic liposomes of various sizes (30, 100, and 400 nm). Fluorescence anisotropy was recorded using a Fluorolog-3 fluorometer. The mixture was allowed to equilibrate for 2 minutes prior to the next titration. The excitation wavelength was set to λex=480 nm whereas the emission filter was set to λem=545 nm. The voltage was set to 250 V throughout the experiment. Blank PBS (pH=7.40) was titrated to NBD-labeled peptides as a negative control, where negligible anisotropy change was observed. The following equation was used to determine the dissociation constants as previously reported: Fb=Kp [L]/(1+KP[L]), where Fb expresses the fraction of peptide bound to lipids, Kp expresses the molar partition coefficient and [L] expresses the lipid concentration.
Lipid vesicles were titrated to NBD-labeled MARCKS-ED, MARCKSmut1, or MARCKSmut2 peptides. Since the peptide partitions between the hydrophobic lipid bilayer and the aqueous solvent, the molar partition coefficient is often reported. By definition, the apparent dissociation constant (Kd), described as the lipid concentration where 50% of the peptide is bound, is the reciprocal of the molar partition coefficient (Kp). Fluorescence anisotropy assay results indicated efficient curvature sensing by MARCKS-ED. FIG. 4C represents an exemplary fluorescence anisotropy titration of MARCKS-ED with various lipid vesicles. FIG. 4D provides data of fluoresence anisotropy titration of various MARCKS derived peptides. Lipid vesicles used in the experiments represented by FIGS. 4C-4D contained 60% POPC:15% cholesterol: 15% POPE: 10% POPS. […] As a comparison, C2AB illustrated a 1.9 fold increase in binding to smaller vesicles (105 nm) relative to the larger ones (252 nm). […] In addition, electrostatic interactions of MARCKSmut2 were also compromised. […] Such defects would permit the Phe residue to insert and stabilize the highly curved membranes.

synthetic lipid vesicles = assay: Fluorescence enhancement assay of NBD-labeled MARCKS peptides with synthetic vesicles; type: binding; details: FIG. 4B
Excerpt: In another exemplary method, lipid vesicles were employed to the curvature-sensing behavior of the MARCKS derived peptides with various sizes and lipid components. The membrane curvature is defined as the reciprocal of the diameter of a particular particle, e.g., smaller-sized vesicles present highly curved membrane bilayers. A series of lipid models were made to represent various lipid components that closely resemble the lipid composition of biological membranes. […] Dynamic light scattering (DLS) and negative-stain transmission electron microscopy (TEM) were performed to confirm the different vesicle sizes following the pressure-controlled extrusion process through different membrane diameter pores. Commercial polystyrene beads were used as the calibration standard for the vesicle size validation experiments. Furthermore, a time-course experiment was carried out to confirm the stability of the vesicles up to 16 hours. Three different membrane diameters were extruded for the following biophysical characterizations: 30 nm, 100 nm, 400 nm, reflecting different membrane curvatures.
Next, a fluorescence enhancement assay was conducted to further quantify the curvature- and PS-sensing behavior of MARCKS-ED. Appropriate controls were performed to confirm that the fluorophore alone had no effect on the observed fluorescence enhancement (data not shown). FIG. 4 represents histogram data of fluorescence enhancement assay with and fluorescence anisotropy titration of the NBD labeled MARCKS derived peptides. Upon binding to lipid vesicles, the fluorescence intensity of NBD-MARCKS-ED increased due to vesicle binding and changes in the hydrophobic environment surrounding the fluorophore, concurring with a slight blue shift of the maximum emission wavelength. The emission spectra of all NBD-labeled peptides were recorded using a Fluorolog-3 fluorometer with λex=480 nm. The peptides and protein were tested at a concentration of 500 nM in PBS (pH 7.40) treated with 500 μM synthetic vesicles of different vesicles sizes. […] The positive control C2AB (200 nM) from the rat Synaptotagmin-1 (Syn-1) protein (G374, residues 96-421) was treated with CaCl2 (2.5 mM) and observed with λex of 275 nm and emission range of 300-450 nm. The untreated peptide and Ca^2+-C2AB samples were corrected by the PBS (pH=7.40) blank solution for the peptides and PBS with Ca^2+ for the Ca^2+-C2AB sample. All samples were prepared and incubated overnight in 4° C.
FIG. 4A illustrates a histogram plot of fluorescence intensity of MARCKS-ED treated with lipid vesicles of various sizes. […] Last, the fluorescence intensity differences were less significant with vesicles containing no PS. […]

microvesicles in plasma = assay: Nanoparticle tracking analysis of microvesicles in plasma from stressed rats treated with MARCKS peptides; type: binding, rat; details: Alexa Fluor 546 labeled peptides 55 nM
Method: These isolated microvesicles were measured by nanoparticle tracking analysis (NTA) to confirm their average size (ø=56 nm). Tracking analyses were performed using the NanoSight LM10-HS instrument (Amesbury, UK) equipped with a 532 nm laser and observed at scatter and fluorescence modes (filter=550 nm). The instrument was calibrated using commercially available 50 nm polystyrene beads. […] Alexa Fluor 546™-labeled mouse anti-rat CD63 and unconjugated Alexa Fluor 546™ were used as positive and negative controls, respectively. The profiles of MARCKS-ED-Alexa Fluor 546™ and Alexa Fluor 546™ in the absence of microvesicles were also investigated to confirm that these show negligible scatter and fluorescence background signals under identical NTA conditions.
FIG. 5A represents fluorescence enhancement assay with MARCKS-ED incubated with the isolated microvesicles. Peptide MARCKS-ED ([…]) not treated with microvesicles was used as a negative control. Annexin-V (a positive control) and MARCKS-ED were incubated with the isolated rat microvesicles. Fluorescence was normalized to the negative control. […] The diameter size and particle count of the isolated microvesicles detected by MARCKS-ED was further quantified. Nanoparticle tracking analysis (NTA) uses a laser for scatter and fluorescence modes to track small particles by Brownian motion, providing a robust method for detecting nano-sized microvesicles. Under the fluorescence mode with the emission filter set for the Alexa Fluor 546™, the particles that bound to MARCKS-ED, MARCKSmut1, and MARCKSmut2peptides were observed.
FIG. 5B illustrates the results of NTA of microvesicles treated with MARCKS derived peptides. […] The untreated plasma samples were detected using the scatter mode and treated samples were monitored by tracking the fluorescence of Alexa Fluor 546™ conjugated to the MARCKS-ED MARCKSmut1 and MARCKSmut2 peptides. […] Furthermore, blank samples were performed to rule out possible artifacts of background fluorescence from the peptides, the vesicles and the unconjugated dye.

[2] = test system: PS-exposing cell membranes; assay: Fluorescence staining of PS-exposing membranes in dissected gonads of C. elegans; type: in vivo; details: wild type (N2), tat-1(tm3117) and ced-7(n2094) animals
Method: Fluorescence staining assays were carried out in an acceptible C. elegans model with PS-exposing cell membranes. […] NBD-MARCKS-ED was used to stain the dissected gonads of wild type (N2) animals, tat-1(tm3117) mutant animals, and engulfment-deficient ced-7 (n2094) mutant animals, respectively. 36 hour old hermaphrodite adult animals were collected and gently dissected by cutting their heads in a depression slide with a gonad dissection buffer (previously presented) to expose the gonads. The exposed gonads were then washed once in the dissection buffer and transferred to a dissection buffer containing 4 μM of Hoechst 33342 and 20 μM of NBD labeled MARCKS-ED peptide, 20 μM NBD-MARCKSmut1 peptide, or 10 nM Alexa Fluor 488-conjugated Annexin-V for 45 minutes. Gonads were washed one more time in the dissection buffer, placed on a 5% agarose pad, and visualized using a Nomarski microscope equipped with an epifluorescence detector.
FIGS. 6A-6C illustrate exemplary staining results using MARCKS derived peptides and Annexin V. PS is typically kept in the inner leaflet of plasma membranes in living cells and is exposed on the cell surface only under certain cellular events, i.e., when cells undergo apoptosis or lose the ability to maintain the PS asymmetry with a tat-1 gene mutation. FIG. 6A represents the staining results with labeled MARCKS-ED in wild type and mutants C. elegans. […] FIG. 6B represents the staining results with labeled MARCKSmut1 in wild type and mutants C. elegans. […] In FIGS. 6A-6B, nuclei were stained with Hoechst 33342. Annexin-V, a known PS-sensor, was also used to stain the gonads of tat-1 and ced-7 mutant C. elegans. […] Hoechst33342 (4 μM), FITC-AnnexinV (10 nM) and Nomarski images are shown. […] Scale bar=10 μm.

isolated microvesicles = assay: Fluorescence enhancement with isolated rat microvesicles; type: binding
Method: In another exemplary method, having established the simultaneous curvature- and PS-sensing by MARCKS-ED in synthetic liposomes, MARCKS-ED was tested on detection of highly curved, PS-enriched particles in a complex biological system. Microvesicles (ø=0.03-1 μm) are highly curved lipid vesicles that shed into body fluids (e.g., blood, urine, ascitic fluid). These vesicles are released by cancerous cells in which lipid asymmetry is de-regulated, contributing to externalization and enrichment of PS on their outer leaflet. The microvesicle detecting ability of MARCKS-ED was investigated using plasma samples from a stressed rat model. […]
Microvesicles in these samples were characterized by TEM imaging, and ELISA of detection of the signature CD63 protein and the membrane transport protein Rab5b exposed on the surface. Particles expressing both proteins were captured by antibodies and quantified in a colorimetric endpoint assay.
These isolated microvesicles were measured by nanoparticle tracking analysis (NTA) to confirm their average size (ø=56 nm). Tracking analyses were performed using the NanoSight LM10-HS instrument (Amesbury, UK) equipped with a 532 nm laser and observed at scatter and fluorescence modes (filter=550 nm). […]
Monitored at λex=295 nm, Annexin-V (0.32 μM) was treated with CaCl2 (3 mM) in TES buffer and with 500 μM lipid vesicles of varying PS content. […]

29 nm liposomes = details: with 29 nm liposomes; cited from earlier work

| Substance | binding affinity [1] | fluorescence enhancement and curvature sensing (synthetic lipid vesicles) | binding to microvesicles in whole plasma (NTA fluorescence mode) (microvesicles in plasma) | staining of PS-exposed membranes [2] | binding to isolated microvesicles (fluorescence enhancement) (isolated microvesicles) | fluorescence enhancement (29 nm liposomes) [RFU] |
| --- | --- | --- | --- | --- | --- | --- |
| AAAAAAFSFAASFALSGFSFAANAA [MARCKSmut2, MARCKS-ED with positively charged residues (Lys, Arg) mutated to Ala] | compromised | significantly reduced fluorescence enhancement | only negligible binding | – | – | – |
| Annexin-V: established PS-sensing protein, positive control [reference compound] | – | – | – | germ cell corpses stained with both Hoechst and FITC-AnnexinV protein | Fluorescence enhancement was observed | – |
| Golgi-microtubule-associated protein-2101-38: ALPS motif-bearing established curvature-sensing protein fragment (MSSWLGGLGSGLGQSLGQVGGSLASLTGQISNFTKDML; UniProt Q15643 1-38, looked up, fragment) | – | – | – | – | – | ~1.25 |
| KKKKKRASAKKSAKLSGASAKKNKK [MARCKSmut1, MARCKS-ED with the five Phe residues mutated to Ala] | greatly reduced binding affinity | significantly reduced fluorescence enhancement | some preferential binding to smaller vesicles but with much weaker fluorescence signal | did not appear to detect PS-exposed membranes in either tat-1 or ced-7 mutant animals | – | – |
| nuclear pore complex protein-133245-267: ALPS motif-bearing established curvature-sensing protein fragment (LPQGQGMLSGIGRKVSSLFGILS; UniProt Q8WUM0 245-267, looked up, fragment) | – | – | – | – | – | ~1.25 |

From US20150093333A1, “COMPOSITIONS, METHODS AND USES FOR PEPTIDES IN DIAGNOSIS, PROGRESSION AND TREATMENT OF CANCERS” (THE REGENTS OF THE UNIVERSITY OF COLORADO, body corporate, priority 2003, published 2015)
